Columns and labels:
[1] = Osmolality of contrast media formulations (vapor pressure osmometer); assay type: physicochemical
Method: (§1) For this purpose contrast media formulation with a molar concentration of […] for monomeric compounds and of […] for dimeric compounds, equivalent to a iodine concentration of 300 mgI/mL or 189 mgBr/mL were prepared at neutral pH. After heat sterilization under standard conditions for 20 min at 120°C changes in pH and free bromine and iodine was measured. The osmolality was measured at 37°C using a Knauer vapor pressure osmometer. Viscosity of contrast media formulations was determined using a Schott capillary viscosimeter which was standardized with water.

[2] = Phantom studies with conventional mammography (X-ray absorption of contrast media in agar discs); details: 10 mm agar discs in 5 cm water phantom, film mammography
Method: The agar pieces were prepared in cell-culture well-plates having a diameter of 24 mm and a final height of 10 mm. After formation of solid agar the agar discs were placed in a water phantom containing 5 cm height of water. Additionally a control agar disc prepared with physiological saline instead of CM volume was added. The whole phantom was imaged with a commercial available mammograph at various energies of 30 kV, 25 and 20 kV and 140 mAs. After exposure the mammographic films were developed according to standard quality guidelines. Later the films were digitized and signal intensities of the agar discs and surrounding water background were measured with a imaging analyzing software.

[3] = Viscosity of contrast media formulations (capillary viscosimeter); assay type: physicochemical; details: formulations 0.788 (monomer) or 0.394 (dimer) mol/L
Method: as §1

[4] = Aqueous solubility; assay type: physicochemical
[5] = Pharmacokinetic profile after intravenous administration of 3H-labelled compound; assay type: in vivo, male Sprague-Dawley rats; details: rats
Method: The pharmacokinetic profile of example 4 was examined after intravenous administration of 3H-labelled example 4 to male Sprague-Dawley rats. For this purpose example 4 was labeled with tritium of a chemical concentration of 300 mg / mL and a radioactive concentration of 2.75 MBq/mL. After intravenous injection in the right jugular vein via a catheter at a dose of 600 mg EXAMPLE 4/kg blood samples of 400 µl were collected in plastic tubes at 0.083, 0.25, 0.5, 1, 2, 4, 6, 8 and 24 hours after administration. Plasma samples were obtained after blood sample centrifugation at 250 g for 10 min. After injection, the rats were transferred in metabolic cages allowing the collection of urine and faeces at different intervals. Aliquots of 100 µl of samples with blood or urine were added to 10 ml of scintillation cocktail and the radioactivity was measured by means of a Tricor-2500 TR automatic scintillation spectrometer. Faeces samples were freeze-dried for two days. They were milled and aliquots of 50 or 100 mg were taken, moistened with 1 mL water and digested with Soluene-350® and 1 mL of isopropyl alcohol at 50 °C for 24 hours. Digested faeces samples were bleached and radioactivity was measured as mentioned above. Plasma levels of example 4 and mean cumulative urinary and faecal excretion data were fitted to a two-compartment model. Curve fit and evaluation of kinetic parameters was performed on the TOP-Fit v 2.0β program.

[6] = test system: male Sprague-Dawley mice; experiment: Acute tolerance, approximate LD50 after single intravenous injection
Source text: (§2) The behavior of the animals and the lethality was monitored for 7 days post injection.

[7] = test system: erythrocyte morphology; experiment: Influence on erythrocyte morphology in rat blood (damage index); assay type: cell-based; details: for Erythrocyte morphology Damage index 2 h: six parts blood to one part test substance, 2 h incubation
Method: Six parts by volume was mixed with one part by volume of each test substance. The mixtures were examined with and optical microscope immediately, 1 hour and 2 hours after incubation in terms of a damage index of blood cells.

[8] = in vivo; details: male, mouse, iv
Source text: as §2

[9] = i.v. 600 mg/kg, two-compartment model

Row | Compound | Osmolality a) monomer, 0.788 mol/L, 37°C [1] [mOsm/kg water] | Viscosity (37°C) [3] [mPa·s] | Aqueous solubility [4] [mgBr/mL] | increase of the tolerability with respect to the iodinated and brominated reference compounds [6] | influence on erythrocyte morphology compared to iodinated reference substances [7] | Erythrocyte morphology Damage index 2 h [7] | Osmolality b) dimer, 0.394 mol/L, 37° C [1] [mOsm/kg water] | also measured
1 | CN(CC(O)CO)C(=O)c1c(Br)c(NC(=O)CO)c(Br)c(C(=O)NCC(O)CO)c1Br (centres unmarked) [Example 4, 2,4,6-tribromo-5-hydroxyacetylamino-N,N'-bis-(2,3-dihydroxypropyl)-N-methylisophthalamide] | 818 | 3.5 | >400 | 13 - 23% | substantially less influence on erythrocyte morphology than the iodinated reference substances | 0.82 | – | detectable down to concentrations [2]: 1.31 mmol/L; detectable down to concentrations, moles equivalent to mg I/mL of Iohexol [2]: 0.5 mg I/mL; in faeces measured ([5]; 24 h p.i.): 5.1 % I.D.; in the urine detected ([5]; 24 h p.i.): 63.7 % I.D.; metabolisation (bile fluid, HPLC-analysis) ([5]; bile collected via catheter in the bile duct): no metabolisation; cumulative faecal excretion ([5]; i.v. 600 mg/kg, at 24 h): 5.39 % of injected dose; cumulative urinary excretion ([5]; i.v. 600 mg/kg, at 24 h p.i.): 62.8 % of injected dose; distribution volume Vc [5, 9]: 0.26 L/kg; t½ α [5, 9]: 11.4 min; t½ β [5, 9]: 31.2 min
2 | NC(=O)c1c(Br)c(C(=O)NC(CO)C(O)CO)c(Br)c(N(CCO)C(=O)CO)c1Br (centres unmarked) [Example 14, 2,4,6-tribromo-5-[N-(2-hydroxyethyl)hydroxyacetylamino]-N-(1-hydroxymethyl-2,3-dihydroxypropyl)isophthalamide] | 500 | 3.4 | >400 | 13 - 23% | substantially less influence on erythrocyte morphology than the iodinated reference substances | 0.88 | – | –
3 | NC(=O)c1c(Br)c(C(=O)NCC(O)CO)c(Br)c(N(CC(O)CO)C(=O)CC(=O)N(CC(O)CO)c2c(Br)c(C(N)=O)c(Br)c(C(=O)NCC(O)CO)c2Br)c1Br (centres unmarked) [Example 25, N,N'-bis-[2,4,6-tribromo-5-carbamoyl-3-[N-(2,3-dihydroxypropyl)carbamoyl]phenyl]-N,N'-bis-(2,3-dihydroxypropyl)-malonamide] | – | 5.5 | 400 | 13 - 23% | substantially less influence on erythrocyte morphology than the iodinated reference substances | 0.45 | 320 | –
4 | CN(C(=O)CC(=O)N(C)c1c(Br)c(C(=O)NC(CO)C(O)CO)c(Br)c(C(=O)NC(CO)C(O)CO)c1Br)c1c(Br)c(C(=O)NC(CO)C(O)CO)c(Br)c(C(=O)NC(CO)C(O)CO)c1Br (centres unmarked) [Example 26, N,N'-bis-[2,4,6-tribromo-3,5-bis-[N-(1-hydroxymethyl-2,3-dihydroxypropyl)carbamoyl]phenyl]-N,N'-dimethylmalonamide] | – | 6.3 | 400 | 13 - 23% | substantially less influence on erythrocyte morphology than the iodinated reference substances | 0.51 | 370 | –
5 | CC(=O)N(CC(O)CO)c1c(I)c(C(=O)NCC(O)CO)c(I)c(C(=O)NCC(O)CO)c1I (centres unmarked) [Iohexol, 5-[N-(2,3-dihydroxypropyl)acetylamino]-2,4,6-triiodo-N,N'-bis-(2,3-dihydroxypropyl)isoph-thalamide, reference compound] | – | – | – | – | – | 1.31 | – | –
6 | CN(C(=O)CC(=O)N(C)c1c(I)c(C(=O)NC(CO)C(O)CO)c(I)c(C(=O)NC(CO)C(O)CO)c1I)c1c(I)c(C(=O)NC(CO)C(O)CO)c(I)c(C(=O)NC(CO)C(O)CO)c1I (centres unmarked) [Iotrolan, N,N'-bis-[2,4,6-triiodo-3,5-bis-[N-(1-hydroxymethyl-2,3-dihydroxypropyl)carbamoyl]phenyl]-N,N'-dimethylmalonamide, reference compound] | – | 8.5 | >400 | – | – | 0.69 | 320 | LD50 at 7 days ([8]; Sprague-Dawley): 63000 µmol/kg
7 | CC(=O)N(CC(O)CO)c1c(Br)c(C(=O)NCC(O)CO)c(Br)c(C(=O)NCC(O)CO)c1Br (centres unmarked) [reference compound] | 908 | 4.6 | > 300 | – | – | – | – | LD50 at 7 days [8]: ~59000 µmol/kg

— patent EP1186305A1 (Schering Aktiengesellschaft, priority 2000, dated 2002)
